From PubChem BioAssay AID624420 (Sanford-Burnham Center for Chemical Genomics, 2012)

Tested on: Human plasma stability, percent remaining
Assay: compound stability in Homo sapiens plasma, ADME assay, biochemical, second set (AID 624420)
Conditions: at 1 µM

Row | SMILES | plasma stability [%]
1 | COc1ccccc1N(/N=C1\Sc2ccccc2C1=O)C(C)=O | 94.1
2 | Cc1cc2c(s1)c1cnn(Cc3ccccc3F)c(=O)c1n2C | 82.8
3 | CCCOc1ccc(-c2nc(OC)c3ccccc3n2)cc1 | 100
4 | Cc1ccnc(NC(=O)CCCOc2cc(=O)n(C)c3ccccc23)c1 | 100
5 | COc1ccc(S(=O)(=O)n2nc(OC(=O)c3ccccc3)cc2N)cc1 | 0.3
6 | COc1ccc(OC)c(S(=O)(=O)Nc2cnc3ccccc3c2)c1 | 83
7 | COc1ccc(OC)c(-c2nnc3n2N=C(c2ccc(OC)c(OC)c2)CS3)c1 | 100
8 | CC(=O)c1ccc(N2CCN(S(=O)(=O)c3ccc4c(c3)CC(=O)N4)CC2)cc1 | 80.6
9 | Cc1ccc(S(=O)(=O)C(c2ccccc2)c2c(C)noc2C)cc1 (stereo not given) | 91.9
10 | Cc1cc(C(=O)CN2C(=O)CCC2=O)c(C)n1Cc1ccccc1 | 84
11 | Brc1cc2c(cc1C1Nc3ccccc3C3C=CCC31)OCO2 (stereo not given) | 97
12 | CCOc1ccc(NC(=S)N2CCC(C(O)(c3ccccc3)c3ccccc3)CC2)cc1 | 63.7
13 | COC(=O)c1ccccc1NC(=O)c1ccc(F)cc1 | 80
14 | Brc1ccc2c(c1)CN1CCCC1=N2 | 100
15 | CCCN1CNc2c(c(=O)[nH]c(=S)n2CCc2ccc(OC)c(OC)c2)C1 | 85.1
16 | O=C(O)c1cccnc1SCCc1ccccc1 | 88.3
17 | O=C(COC(=O)C12CC3CC(CC(C3)C1)C2)NCc1ccco1 | 58.7
18 | COc1nc(-c2ccccc2)nnc1-c1ccccc1 | 100
19 | Cc1ccccc1N1CCN(c2ncnc3c2cnn3Cc2ccc(Cl)cc2)CC1 | 88.2
20 | O=C(O)CCC(NS(=O)(=O)c1ccc(-c2ccccc2)cc1)C(=O)O (stereo not given) | 57
21 | O=c1[nH]c2c(s1)C(c1cccnc1)C1C3CCC(C3)C1S2 (stereo not given) | 86.8
22 | CCCN(CCC)CCNC(=O)C1CCN(Cc2nc(-c3ccc(Cl)cc3)oc2C)CC1 | 100

Row | SMILES | plasma stability [%]
23 | C/C=C/Cn1c(SCCCc2ccccc2)nc2c1c(=O)[nH]c(=O)n2C | 98.5
24 | COc1ccc(CNCc2cccc3ccccc23)cc1 | 92.1
25 | O=C1NCCCc2c1oc1ccc(O)cc21 | 95.7
26 | CCCc1nc2c(=O)n(C)c(=O)nc-2n(C)n1 | 1.52
27 | Cn1nnnc1Sc1ncnc2scc(-c3ccccc3)c12 | 76.8
28 | COc1cccc(-c2nc(-c3ccc(NC(=O)Cc4ccccc4OC)cc3)no2)c1 | 100
29 | Cc1cc(-c2nnc3n2CCCCC3)c(C)n1-c1ccccc1 | 87.9
30 | N#Cc1ccccc1CSc1nc2ncc(Br)cc2[nH]1 | 95.4
31 | CCCn1ncc(CN2CCCC(C(=O)c3cccc(OC(C)C)c3)C2)c1C (stereo not given) | 100
32 | CC(C)C(=O)NC(c1ccco1)c1ccc2cccnc2c1O (stereo not given) | 100
33 | Cc1ccc(S(=O)(=O)NCc2ccc(C(=O)NCCN(Cc3ccccc3)C(C)C)cc2)cc1 | 100
34 | O=C(O)c1ccccc1OCc1ccccc1Br | 76.7
35 | c1ccc(-c2nnc(N3CCOCC3)nc2-c2ccccc2)cc1 | 100
36 | Cc1ccc(N2CCN(S(=O)(=O)N3CCCCC3)CC2)c(C)c1 | 100
37 | O=C(COc1ccccc1Br)NCCc1nc2ccccc2[nH]1 | 88
38 | CC[C@H]1CN2CCc3cc(OC)c(OC)cc3[C@@H]2C[C@@H]1C[C@H]1NCCc2cc(OC)c(OC)cc21 | 91.5
39 | Cc1ccc(S(=O)(=O)n2c(N)nc3ccccc32)cc1 | 95.8
40 | Cc1ccc(C(=O)n2c3ccccc3c3ccccc32)cc1 | 92
41 | CCOc1ccc(-c2nc(-c3ccncc3)no2)cc1OCC | 100
42 | O=C1C2CC=CCC2C(=O)N1c1n[nH]c(-c2ccccc2)n1 (stereo not given) | 69.8
43 | Cc1cc(C)nc(-n2nc(C)c(Sc3ccc(F)cc3)c2N)n1 | 97
44 | O=[N+]([O-])c1ccc(CN2CCOCCOCCN(Cc3ccc([N+](=O)[O-])cc3)CCOCC2)cc1 | 98.3

Row | SMILES | plasma stability [%]
45 | CN(C)c1oc(-c2ccc(OCc3ccc(Cl)cc3)cc2)nc1C#N | 94.3
46 | CCc1nnc(NC(=O)c2ccc(NS(=O)(=O)c3ccccc3)cc2)s1 | 100
47 | CCN1CCN(c2nc3ccccc3nc2C(C#N)C(=O)OC2CCCCC2)CC1 (stereo not given) | 100
48 | O=c1c2ccccc2[se]n1-c1ccccc1 | 100
49 | CSc1nc(-c2ccc(C)cc2)nc(C(Cl)Cl)n1 | 81.9
50 | Cn1cnc([N+](=O)[O-])c1Sc1ncnc2nc[nH]c12 | 83.2
51 | N#C/C(=C\c1ccc([N+](=O)[O-])o1)c1nc2ccccc2[nH]1 | 16.9
52 | O=C(O)c1ccc(N2C(=O)/C(=C/c3ccc(-c4ccc([N+](=O)[O-])cc4)o3)C=C2c2ccccc2)cc1 | 87.3
53 | Cc1cccc(-n2cnc3cc(C(=O)N4CCCCC4)ccc32)c1 | 87
54 | Cc1cc(C)n(-c2nc(NCCCO)c3c4c(sc3n2)CCCC4)n1 | 88.5
55 | CCOC(=O)C(C)Oc1cccc2c(=O)n(CC(=O)Nc3ccc4c(c3)OCCO4)ccc12 (stereo not given) | 37.7
56 | Cc1ccc(C)c(NS(=O)(=O)c2cc(C(=O)Nc3ccccc3-c3ccccc3)ccc2Cl)c1 | 100
57 | CN(C)C1=C(Cl)C(=O)N(c2ccc(Cl)c(Cl)c2)C1=O | 0.83
58 | COc1ccc(S(=O)(=O)N2CCN(S(=O)(=O)c3ccc4c(c3)OCCO4)CC2)cc1 | 96.4
59 | O=c1[nH]c(SCc2ccc(Cl)cc2)nc2c1CCC2 | 100
60 | O=C(c1ccccn1)N(Cc1cccs1)C1(C(=O)NC2CCCCC2)CCCCC1 | 96.7
61 | C=CCn1c(SCC(=O)c2ccc(O)c(O)c2)nnc1-c1ccccc1OC | 100
62 | Cc1ccc(C)c(OCCn2cc(C(=O)O)c3ccccc32)c1 | 91.6
63 | Cc1nc(SCc2nc3ccccc3[nH]2)c2oc3ccccc3c2n1 | 88
64 | c1ccc2c(Nc3nnc(-c4ccncc4)s3)cccc2c1 | 99.5
65 | Cc1ccc(NC(=O)CCC(=O)N/N=C/c2ccc([N+](=O)[O-])o2)cc1C | 67
66 | COc1ccc(C2c3c(ncn(CCN4CCOCC4)c3=N)Oc3ccc4ccccc4c32)cc1OC (stereo not given) | 93.5

Row | SMILES | plasma stability [%]
67 | CCCc1cc(C(=O)N(C2CCCCC2)C2CCCCC2)no1 | 67.4
68 | COc1ccc(C2CC(c3ccccc3)=NN2c2ccc(S(N)(=O)=O)cc2)cc1 (stereo not given) | 79.5
69 | CCc1oc2ccccc2c1C(=O)c1cc(Br)c(O)c(Br)c1 | 94.6
70 | COc1ccc(N(C(=O)CCl)C(C(=O)NCCc2ccccc2)c2cccs2)cc1Cl (stereo not given) | 68.2
71 | NC(=O)C1CCN(c2nc(-c3ccc(Br)cc3)cs2)CC1 | 96.8
72 | CC1CCCN(C(C(=O)Nc2ccc3c(c2)OCCO3)c2ccccc2)C1 (stereo not given) | 100
73 | O=C(CCNS(=O)(=O)c1cccc2nsnc12)N1CCN(c2ccccn2)CC1 | 91.2
74 | Cc1ccc(NS(=O)(=O)c2ccc3c(c2)CCC(=O)N3)cc1C | 100
75 | CS(=O)(=O)c1ccc(C(=O)OCC(=O)NC23CC4CC(CC(C4)C2)C3)cc1[N+](=O)[O-] | 0.07
76 | CCCC(=O)Nc1cccc(NC(=O)c2ccccc2Br)c1 | 87.8
77 | COc1ccc(CSc2nc(C)cc(=O)[nH]2)cc1 | 100
78 | O=S(=O)(NC1CCCCC1N1CCOCC1)c1ccc(Cl)cc1 (stereo not given) | 100
79 | COc1ccc(Sc2ccc(NC(=O)c3ccccc3Cl)cc2C#N)cc1 | 91.9
80 | O=C1CCCC2=C1C1(CCCC1)N=C(Nc1nc3ccccc3o1)N2 | 100
81 | O=C(CSc1cccc2cccnc12)N1CCCC1 | 99.3
82 | c1ccc(CC2CCN(c3ncnc4sccc34)CC2)cc1 | 100
83 | CN(C)c1nc(N)nc(CSc2nnnn2-c2cccc3ccccc23)n1 | 100
84 | O=S1(=O)Nc2c(ccc3cccnc23)-c2ccccc21 | 100
85 | Cc1ccc(-n2c(N)c(C#N)c(-c3ccccc3)c(C#N)c2=O)cc1 | 99.8
